Data from ChEMBL document CHEMBL6134778, “Spiro-Azetidine Oxindoles as Long-Acting Injectables for Pre-Exposure Prophylaxis against Respiratory Syncytial Virus Infections” (J Med Chem, 2024).
Values after ≈ are worked out from the molar mass of the structure shown.

Key:
[1] = Volume of distribution at steady state in Sprague-Dawley rat at 1 mg/kg, iv by LC-MS/MS analysis; type: ADME, organism-based; conditions: in vivo, read-out: Vdss
[2] = tested on: Respiratory syncytial virus; test: Antiviral activity against RSV A2 harboring eGFP infected in human HeLa cells assessed as reduction in virus replication by measuring 3X protein-adjusted effective concentration for 90% inhibition measured after 3 days in presence of human serum albumin and alpha(1)-acid glycoprotein by laser microscopy; type: functional; conditions: time 3 day
[3] = tested on: Respiratory syncytial virus; test: Antiviral activity against RSV A2 harboring eGFP infected in human HeLa cells assessed as reduction in virus replication measured after 3 days by laser microscopy; type: functional, organism-based; conditions: 72 h
[4] = tested on: Canis familiaris; test: Release rate constant in Beagle dog at 20 mg/kg, IM by LC-MS/MS analysis; type: ADME, organism-based, Canis lupus familiaris; conditions: in vivo
[5] = tested on: Canis familiaris; test: Particle size for the 50th percentile of the cumulative volume distribution in Beagle dog at 20 mg/kg, IM […]; type: ADME, organism-based, Canis lupus familiaris; conditions: in vivo
[6] = tested on: HeLa; test: Cytotoxicity against human HeLa cells assessed as reduction in cell viability at highest concentration measured after 3 days by ATPlite assay; type: toxicity, cell-based; conditions: 72 h, time 3 day
[7] = Equilibrium solubility of the compound […] at pH 7 measured after 3 days by LC-MS/MS analysis; type: physicochemical; conditions: time 3 day
[8] = Intrinsic clearance in human liver microsomes assessed per mg protein at 1 uM measured after 60 mins in presence of NADPH by LC-MS/MS analysis; type: ADME, Microsome; conditions: read-out: CLH
[9] = Bioavailability in Sprague-Dawley rat assessed as dose released at 50 mg/kg, IM measured over 12 weeks by LC-MS/MS analysis; type: ADME, organism-based; conditions: in vivo
[10] = Bioavailability in Beagle dog assessed as dose released at 20 mg/kg, IM by LC-MS/MS analysis; type: ADME, organism-based, Canis lupus familiaris; conditions: in vivo
[11] = Clearance in Beagle dog at 0.25 mg/kg, iv by LC-MS/MS analysis; type: ADME, organism-based, Canis lupus familiaris; conditions: in vivo
[12] = Clearance in Sprague-Dawley rat at 1 mg/kg, iv by LC-MS/MS analysis; type: ADME, organism-based; conditions: in vivo
[13] = Chromatographic hydrophobicity index, logD of the compound at pH 7.4 by UPLC analysis; type: physicochemical; conditions: buffer
[14] = Thermodynamic solubility in aqueous buffer at pH 7 incubated for 24 hrs by UPLC analysis; type: physicochemical; conditions: read-out: Therm_solubility
[15] = tested on: Rattus norvegicus; test: Particle size for the 50th percentile of the cumulative volume distribution in Sprague-Dawley rat at 50 mg/kg, IM […]; type: ADME, organism-based; conditions: in vivo
[16] = tested on: Rattus norvegicus; test: Release rate constant in Sprague-Dawley rat at 50 mg/kg, IM measured over 12 weeks by LC-MS/MS analysis; type: ADME, organism-based; conditions: in vivo, 2016 h
[17] = Volume of distribution at steady state in Beagle dog at 0.25 mg/kg, iv by LC-MS/MS analysis; type: ADME, organism-based, Canis lupus familiaris; conditions: in vivo, read-out: Vdss
[18] = Intrinsic clearance in human hepatocytes assessed per million cells at 1 uM measured after 180 mins by LC-MS/MS analysis; type: ADME, cell-based, Hepatocyte; conditions: read-out: CLH
[19] = Volume of distribution at steady state in Sprague-Dawley rat at 2.5 mg/kg, iv by LC-MS/MS analysis; type: ADME, organism-based; conditions: in vivo, read-out: Vdss
[20] = Clearance in Sprague-Dawley rat at 2.5 mg/kg, iv by LC-MS/MS analysis; type: ADME, organism-based; conditions: in vivo
[21] = tested on: Respiratory syncytial virus; test: Antiviral activity against RSV A/18-001989 harboring eGFP infected in human HeLa cells assessed as reduction in virus replication measured after 3 days by laser microscopy; type: functional, organism-based; conditions: A/18-001989, HeLa, 72 h
[22] = tested on: Respiratory syncytial virus; test: Antiviral activity against RSV A Long infected in PO dosed cotton rat assessed as reduction in viral titer in BALF administered twice day from 1 day prior to infection to 3 days post-infection by plaque assay; type: functional, organism-based; conditions: human respiratory syncytial virus
[23] = tested on: Respiratory syncytial virus; test: Antiviral activity against RSV A/12-049454 harboring eGFP infected in human HeLa cells assessed as reduction in virus replication measured after 3 days by laser microscopy; type: functional, organism-based; conditions: A/12-049454, HeLa, 72 h
[24] = tested on: Respiratory syncytial virus; test: Antiviral activity against RSV B/11-050703 harboring eGFP infected in human HeLa cells assessed as reduction in virus replication measured after 3 days by laser microscopy; type: functional, organism-based; conditions: B/11-050703, HeLa, 72 h
[25] = tested on: Respiratory syncytial virus; test: Antiviral activity against RSV B pSynk-18537F (18537-mKate2) harboring eGFP infected in human HeLa cells assessed as reduction in virus replication measured after 3 days by laser microscopy; type: functional, organism-based; conditions: 72 h
[26] = tested on: Respiratory syncytial virus; test: Antiviral activity against RSV A Memphis 37 harboring eGFP infected in human HeLa cells assessed as reduction in virus replication measured after 3 days by laser microscopy; type: functional, organism-based; conditions: A Memphis 37, HeLa, 72 h
[27] = tested on: Respiratory syncytial virus; test: Antiviral activity against RSV B/05-036549 harboring eGFP infected in human HeLa cells assessed as reduction in virus replication measured after 3 days by laser microscopy; type: functional, organism-based; conditions: B/05-036549, HeLa, 72 h
[28] = tested on: Respiratory syncytial virus; test: Antiviral activity against RSV A/13-000323 harboring eGFP infected in human HeLa cells assessed as reduction in virus replication measured after 3 days by laser microscopy; type: functional, organism-based; conditions: A/13-000323, HeLa, 72 h
[29] = tested on: Respiratory syncytial virus; test: Antiviral activity against RSV rgRSV224 (A2-GFP) harboring eGFP infected in human HeLa cells assessed as reduction in virus replication measured after 3 days by laser microscopy; type: functional, organism-based; conditions: 72 h
[30] = tested on: Respiratory syncytial virus; test: Antiviral activity against RSV A/07-041911 harboring eGFP infected in human HeLa cells assessed as reduction in virus replication measured after 3 days by laser microscopy; type: functional, organism-based; conditions: A/07-041911, HeLa, 72 h
[31] = tested on: Respiratory syncytial virus; test: Antiviral activity against RSV B/03-034613 harboring eGFP infected in human HeLa cells assessed as reduction in virus replication measured after 3 days by laser microscopy; type: functional, organism-based; conditions: B/03-034613, HeLa, 72 h
[32] = tested on: Respiratory syncytial virus; test: Antiviral activity against RSV B Wash/18537 harboring eGFP infected in human HeLa cells assessed as reduction in virus replication measured after 3 days by laser microscopy; type: functional, organism-based; conditions: B Wash/18537, HeLa, 72 h
[33] = tested on: Respiratory syncytial virus; test: Antiviral activity against RSV A2 harboring V76A/Y117H/N517I/L172Q mutant infected in human HeLa cells assessed as reduction in virus replication measured after 3 days by laser microscopy; type: functional, organism-based; conditions: 72 h
[34] = tested on: Respiratory syncytial virus; test: Antiviral activity against RSV pSynk-A2F (A2-mKate2) harboring eGFP infected in human HeLa cells assessed as reduction in virus replication measured after 3 days by laser microscopy; type: functional, organism-based; conditions: 72 h
[35] = tested on: Respiratory syncytial virus; test: Antiviral activity against RSV A2 infected in PO or IM dosed BALB/c mouse assessed as reduction in viral titer in BALF by plaque assay; type: functional, organism-based; conditions: human respiratory syncytial virus
[36] = tested on: Respiratory syncytial virus; test: Antiviral activity against RSV A Long harboring eGFP infected in human HeLa cells assessed as reduction in virus replication measured after 3 days by laser microscopy; type: functional, organism-based; conditions: 72 h
[37] = tested on: Respiratory syncytial virus; test: Antiviral activity against RSV B/14-006938 harboring eGFP infected in human HeLa cells assessed as reduction in virus replication measured after 3 days by laser microscopy; type: functional, organism-based; conditions: B/14-006938, HeLa, 72 h
[38] = tested on: Respiratory syncytial virus; test: Antiviral activity against RSV B/18-002094 harboring eGFP infected in human HeLa cells assessed as reduction in virus replication measured after 3 days by laser microscopy; type: functional, organism-based; conditions: B/18-002094, HeLa, 72 h
[39] = tested on: Respiratory syncytial virus; test: Antiviral activity against RSV A/11-014288 harboring eGFP infected in human HeLa cells assessed as reduction in virus replication measured after 3 days by laser microscopy; type: functional, organism-based; conditions: A/11-014288, HeLa, 72 h
[40] = tested on: Respiratory syncytial virus; test: Antiviral activity against RSV B/17-058221 harboring eGFP infected in human HeLa cells assessed as reduction in virus replication measured after 3 days by laser microscopy; type: functional, organism-based; conditions: B/17-058221, HeLa, 72 h
[41] = Intrinsic clearance in human hepatocytes assessed per million cells measured after 6 hrs using tritiated compound by LC-MS/MS analysis; type: ADME, cell-based, Hepatocyte; conditions: read-out: CLH

SMILES: O=C1N(Cc2nc3cc(Cl)ccc3n2CCCC(F)(F)F)c2cnccc2C12CN(S(=O)(=O)C1CC1)C2
- Vd [1]: 2.48 L/kg
- protein-adjusted EC90 [2]: 0.0082 µg/mL
- EC50 [3]: 0.43 nM
- Ka [4]: 0.01 h⁻¹
- Particle size (D50) [5]: 15.6 um
- Activity [6]: Non-toxic
- solubility at 72 h [7]: < 0.13 µM
- microsomal CLint at 1 µM [8]: < 7.7 µL/min/mg
- bioavailability [9]: 88%
- bioavailability [10]: 93%
- clearance [11]: 0.99 mL/min/kg
- clearance [12]: 43.5 mL/min/kg
- CHI [13]: 2.81
- solubility thermodynamic at 24 h [14]: < 0.1 µg/mL
- Median particle size (D50) [15]: 15.6 um
- Ka [16]: 0.003 h⁻¹
- Vd [17]: 2.65 L/kg
- hepatocyte CLint at 1 µM [18]: < 1.2 µL/min/1e6 cells

SMILES: CC(C)NC(=O)N1CC2(C1)C(=O)N(Cc1nc3cc(Cl)ccc3n1CCCC#N)c1ccccc12
- protein-adjusted EC90 [2]: 0.06 µg/mL
- Vd [19]: 3.2 L/kg
- EC50 [3]: 0.58 nM
- Ka [4]: 0.001 h⁻¹
- Particle size (D50) [5]: 5.34 um
- Activity [6]: Non-toxic
- solubility at 72 h [7]: < 0.25 µM
- microsomal CLint at 1 µM [8]: < 7.7 µL/min/mg
- bioavailability [9]: 21%
- bioavailability [10]: 51%
- clearance [11]: 4.9 mL/min/kg
- CHI [13]: 2.37
- clearance [20]: 21 mL/min/kg
- solubility thermodynamic at 24 h [14]: < 0.1 µg/mL
- Median particle size (D50) [15]: 5.48 um
- Ka [16]: 0 h⁻¹
- Vd [17]: 0.56 L/kg
- hepatocyte CLint at 1 µM [18]: 1.5 µL/min/1e6 cells

SMILES: CS(=O)(=O)N1CC2(C1)C(=O)N(Cc1nc3cc(Cl)ccc3n1CCCC(F)(F)F)c1ccccc12
- EC50 [21]: 1.6 nM
- Vd [1]: 4.43 L/kg
- EC50 [22]: 0.026 µg/mL (≈ 0.0493 µM)
- EC50 [23]: 1.6 nM
- protein-adjusted EC90 [2]: 0.034 µg/mL
- EC50 [24]: 1.6 nM
- EC50 [25]: 1.6 nM
- EC50 [3]: 0.78 nM
- EC50 [26]: 1.6 nM
- Ka [4]: 0 h⁻¹
- EC50 [27]: 1.6 nM
- Particle size (D50) [5]: 5.06 um
- EC50 [28]: 1.6 nM
- Activity [6]: Non-toxic
- solubility at 72 h [7]: < 0.04 µM
- EC50 [29]: 1.6 nM
- microsomal CLint at 1 µM [8]: < 7.7 µL/min/mg
- EC50 [30]: 1.6 nM
- bioavailability [9]: 52%
- EC50 [31]: 1.6 nM
- EC50 [32]: 1.6 nM
- EC50 [33]: 1.6 nM
- EC50 [34]: 1.6 nM
- EC50 [35]: 0.088 µg/mL (≈ 0.167 µM)
- EC50 [36]: 1.6 nM
- bioavailability [10]: 50%
- clearance [11]: 0.46 mL/min/kg
- clearance [12]: 18.5 mL/min/kg
- CHI [13]: 3.39
- EC50 [37]: 1.6 nM
- solubility thermodynamic at 24 h [14]: < 0.1 µg/mL
- Median particle size (D50) [15]: 6.38 um
- EC50 [38]: 1.6 nM
- Ka [16]: 0 h⁻¹
- EC50 [39]: 1.6 nM
- Vd [17]: 5.3 L/kg
- EC50 [40]: 1.6 nM
- hepatocyte CLint [41]: < 1.2 µL/min/1e6 cells
